Reference: US4602040A, “Meclofenamic acid topical pharmaceutical composition” (Warner-Lambert Company, priority 1985, dated 1986)

Key:
[1] = system: carrageenan edema; test: carrageenan-induced paw edema, topical meclofenamic acid, C57BL/6 mice; format: in vivo
Description: (§1) Method: Carrageenan edema was induced in mice by previously published methods (Levy, L., Life Sciences 8:601, 1969). Briefly, mice were injected in the left rear footpad with either 25 ul or 50 ul of a 1% solution of carrageenan in saline and in the contralateral footpad with a similar volume of saline. At various time intervals thereafter, the swelling was assessed in each of the rear footpads by mercury plethysmography.
(§2) In this example, female C57BL/6 or CD-1 mice were used in all studies, and swelling was assessed five hours after carrageenan injection by mercury plethysmography. Net edema was determined by subtracting the volume of the saline-injected foot from the volume of the carrageenan-injected foot. Meclofenamic acid was administered either topically or perorally one hour after carrageenan injection in a vehicle containing 50% PEG 400 monolaurate, 10 lantrol AWS, and 40% isopropyl alcohol. When applied topically, the appropriate hindpaw was dipped to the hairline in the meclofenamic acid solution or vehicle and rubbed gently for 15 seconds by a technician wearing rubber gloves. Approximately 50 ul of the meclofenamic acid or vehicle solution was used to treat each hindpaw.
(§3) Meclofenamic acid was administered orally by gavage needle in a volume of 50 ul of the monolaurate/lantrol AWS/isopropyl alcohol vehicle used above. Statistical differences in swelling between experimental groups were determined by student's t-test.

[2] = solubility in water-miscible solvents; format: physicochemical
[3] = system: carrageenan edema; test: carrageenan-induced paw edema, topical versus oral / distant-site administration; format: in vivo, C57BL/6 mice
Description: as §1, §2, §3
To determine whether the observed activity of meclofenamic acid was actually due to topical rather than oral (as a result of preening) absorption, meclofenamic acid compositions (containing 1, 3 or 5% active ingredient in the above vehicle) were administered orally or topically (to the carrageenan-injected paw) and the effects on swelling were determined.

[4] = octanol/water partition coefficient; format: physicochemical
[5] = solubility of the drug in water and organic solvents; format: physicochemical
[6] = system: carrageenan edema; test: carrageenan-induced paw edema, topical meclofenamic acid, CD-1 mice; format: in vivo
Description: as §1
as §2, with “Approximately 50 ul of the meclofenamic acid or vehicle solution was used to treat each hindpaw.” left out
as §3

SMILES: Cc1ccc(Cl)c(Nc2ccccc2C(=O)O)c1Cl [meclofenamic acid]
- sensitivity of C57BL/6 mice to the effects of meclofenamic acid ([1]; C57BL/6 compared with CD-1 mice, topical): slightly more sensitive
- reduction in swelling (in words) ([1]; C57BL/6 mice, topical to carrageenan-injected foot one hour after carrageenan, swelling at five hours): dose-dependent reduction in swelling
- inhibition of swelling (maximum effect) ([1]; C57BL/6 mice, topical, 3% concentration, five hours after carrageenan): 49.7%
- solubility in water-miscible solvents with the aid of heating ([2]; heating up to 90° C., same solvents, compared with room temperature): more
- solubility in water-miscible solvents ([2]; room temperature, PEG 400, PEG-8 monolaurate, PEG glucose ethers (Glucam-E 10, P-20), PEG-75 Lanolin Oil, PPG-5-Ceteth-10 Phosphate): ≤ 5%
- inhibition of swelling, carrageenan-injected foot versus distant site ([3]; topical to carrageenan-injected foot vs distant site (saline-injected foot), 1, 3, and 5% concentrations, p<0.05): significantly (p<0.05) more inhibitory
- inhibition of swelling, topical versus oral ([3]; topical to carrageenan-injected foot vs oral, 1, 3, and 5% concentrations, p<0.05): significantly (p<0.05) more inhibitory
- local anti-inflammatory activity ([3]; topically applied, data from Examples 5 and 6): significant local anti-inflammatory activity
- octanol/water partition coefficient [4]: highly favorable
- solubility in glycerin, isopropyl myristate and mineral oil ([5]; glycerin, isopropyl myristate, mineral oil): insoluble
- solubility in propylene glycol, ethyl alcohol and linoleic acid ([5]; propylene glycol, ethyl alcohol, linoleic acid): less than 5%
- water solubility ([5]; water): virtually water-insoluble
- reduction in swelling (in words) ([6]; topical to carrageenan-injected foot one hour after carrageenan, swelling at five hours): dose-dependent reduction in swelling
- inhibition of swelling (maximum effect) ([6]; topical, 5% concentration, five hours after carrageenan): 36.4%
